Marks after values point to notes of the source that are not given here.
Experiments:
[1] = Solubility of SCAI-Form and API at pH 1 and pH 2; format: physicochemical; conditions: for Dissolution concentration at pH 1: stirred 15 minutes at 5 mg/mL, diluted 10 times with DW, measured value x 10; for Dissolution concentration at pH 1 / Dissolution concentration at pH 2: filtered; for Dissolution concentration at pH 2: stirred 15 minutes at 1 mg/mL
Protocol: Method for measuring solubility at pH 1: Stirred for 15 minutes at a concentration of 5 mg/mL, and then filtered, diluted 10 times with DW, and analyzed. (The value calculated as [measured value×10] is described in the results)
Method for measuring solubility at pH 2: Stirred for 15 minutes at a concentration of 1 mg/mL, and then filtered, and analyzed.

grade 3/4 CNV lesions [2] = assay: Laser-induced CNV monkey model, fundus fluorescein angiography (FFA): leakage area and spot number; format: in vivo, rhesus monkeys; conditions: n = 6 eyes
From the text: (§1) In this experiment, neovascularization was induced by damaging the choroid of both eyes using a laser in a monkey animal model, and then treated with drugs, and the efficacy is compared and evaluated by performing fundus fluorescein angiography (FFA) and optical coherence tomography (OCT) and measuring the neovascular area and spot number in the damaged area and the retinal lesion thickness.
(§2) Experimental CNV in monkey eyes was induced using a laser photocoagulation system (Vitra 532 nm, Quantel Medical, France).
(§3) Laser parameters: laser wavelength of 532 nm; spot size of 50 μm; energy of 600-800 mW; exposure time of 0.1 s.
(§4) A total of eight rhesus monkeys were used to induce CNV. The animals were anesthetized by intramuscular injection of ketamine hydrochloride (20 mg/kg) and dexmedetomidine hydrochloride (0.03 mg/kg), and then both eyes of each monkey were burned at 8-9 points around the macula, approximately one disc diameter from the macula. Care was taken not to aim the laser at the macula. The force used depended on the morphology of the subretinal bleb indicating a perforation of the Bruch's membrane. If no bled formed, higher energy was used at the next point. Color fundus photography (Retinal Camera TRC-50DX, Topcon Healthcare, Japan) was performed immediately after laser photocoagulation to observe the laser dots. Fundus fluorescein angiography (FFA) examination was performed 12 days after laser induction. Modeling was assessed as successful if there was one or more fluorescence leakage point of grade III and/or grade IV. Animals were enrolled in treatment and randomly divided into two groups based on the total leakage area of grade III and IV laser spots (Tables 10 and 11). The monkeys that were not included were returned to the PRIMED Animal Care Department.
(§5) Frequency: a total of 4 times, 1 time before laser photocoagulation, 1 time before administration (−Day 2), 1 time on Day 14 and 1 time on Day 28 after the first administration.
FFA image acquisition protocol: The FP images were taken, and then FFA was performed. After intravenous infusion of 10% sodium fluorescein (Alcon Laboratories, USA) at a dose of 0.075 mL/kg, rapid posterior polar photographs of the right eye were taken. The left eye was then used to monitor leakage of fluorescein related to the CNV lesion at serial time points (1, 5, and 10 minutes).
To quantify the area of CNV leakage, the total area of hyperfluorescence per eye was measured in late FFA images using Image J software (version 1.52a, Wayne Rasband National Institutes of Health, USA). Images from the later stage (10 min) were also used to calculate the amount and grade of CNV spots (Table 12).
(§6) Data analysis consisted of total area of fluorescein leakage points at one of the registered photocoagulation points, volume of fluorescein leakage points, and retinal thickness. Animal observations, photography, fundus and slit-lamp examinations were recorded and summarized in a report. The mean and standard deviation of the percent change in the total area of fluorescein leakage spots and the percent change in retinal thickness were calculated. Microsoft Office Excel 2013 and SPSS Statistics 13.0 were used for data processing and statistical analysis.

grade 3/4 CNV lesions [3] = assay: Laser-induced CNV monkey model, optical coherence tomography (OCT): retinal thickness; format: in vivo, rhesus monkeys; conditions: n = 6 eyes; for Percent change of retinal thickness (Mean±SD): relative to (baseline − before laser induction), Example 15 (0.08%) eye drops
From the text: as §1, §2, §3, §4
Optical coherence tomography (OCT): Heidelberg Spectralis OCT plus.
as §5
OCT image acquisition protocol: FP and FFA images were taken, and then OCT scans were performed. Efforts were made to maintain uniformly illuminated and well-focused fundus images and high-quality OCT. Once the focus was aligned on the central macula by observation of the monitor screen, the monkey's eyes were identified by applying a high-speed macular scan process. Retinal thickness was automatically measured using software embedded in the Heidelberg OCT by measuring the distance between the internal border membrane and Bruch's membrane. Two membrane lines were found manually. The location with the maximum thickness around the grade III or IV point was selected for measurements. Heidelberg OCT unique has technical characteristics that ensure longitudinal measurements of retinal thickness at the same location.
as §6

[4] = Baseline (after induction, before treatment), group later given Example 15 eye drops
[5] = Day 14, Example 15 (0.08%) eye drops 4 times/day

**Q.** For CNC(=O)c1ccccc1Sc1ccc2c(/C=C/c3ccccn3)n[nH]c2c1 [API, axitinib], which “Dissolution concentration at pH 1” value [1] is on record?
**A.** 2.661 mg/mL

**Q.** What about the “Dissolution concentration at pH 2” value [1] of the same molecule?
**A.** 0.073 mg/mL

**Q.** With CNC(=O)c1ccccc1Sc1ccc2c(/C=C/c3ccccn3)n[nH]c2c1 [SCAI-005, axitinib] as the molecule, how does the “Solubility of SCAI-Form relative to API” value ([1]; from Table 6, pH 1 and pH 2) read?
**A.** about twice

**Q.** What about the “Dissolution concentration at pH 1” value ([1]; listed as SCAI-Form) of the same molecule?
**A.** 4.363 mg/mL

**Q.** What about the “Dissolution concentration at pH 2” value ([1]; listed as SCAI-Form) of the same molecule?
**A.** 0.171 mg/mL

**Q.** And the “Leakage area of grade 3/4 CNV lesions (Mean±SD)” value (grade 3/4 CNV lesions [2]; [4])?
**A.** 9.01 ± 2.25 mm^2

**Q.** What about the “Amount of grade 3/4 leakage spots” value (grade 3/4 CNV lesions [2]; [5]) of the same molecule?
**A.** 47*

**Q.** What about the “Leakage area of grade 3/4 CNV lesions (Mean±SD)” value (grade 3/4 CNV lesions [2]; Day 14, Example 15 (0.08%) ophthalmic solution, 1 drop 50 μL, 4 times/day topical) of the same molecule?
**A.** 9.65 ± 4.85 mm^2

**Q.** What about the “Percent change of leakage area (Mean±SD)” value (grade 3/4 CNV lesions [2]; Day 14 vs baseline, Example 15 (0.08%) eye drops 4 times/day) of the same molecule?
**A.** 4.5 ± 39.1%

**Q.** What about the “Amount of grade 3/4 leakage spots” value (grade 3/4 CNV lesions [2]; Day 28, Example 15 (0.08%) eye drops 4 times/day) of the same molecule?
**A.** 43*

**Q.** What about the “Leakage area of grade 3/4 CNV lesions (Mean±SD)” value (grade 3/4 CNV lesions [2]; Day 28, Example 15 (0.08%) ophthalmic solution, 1 drop 50 μL, 4 times/day topical, p < 0.05 vs baseline) of the same molecule?
**A.** 6.46 ± 3.30* mm^2

**Q.** What about the “Percent change of leakage area (Mean±SD)” value (grade 3/4 CNV lesions [2]; Day 28 vs baseline, Example 15 (0.08%) eye drops 4 times/day, p < 0.05 vs vehicle) of the same molecule?
**A.** −30.2 ± 28.9 %

**Q.** What about the “Amount of grade 3/4 leakage spots” value (grade 3/4 CNV lesions [2]; baseline, group later given Example 15 eye drops) of the same molecule?
**A.** 53

**Q.** What about the “Average retinal thickness of grade 3/4 CNV lesions (Mean±SD)” value (from here on “Average retinal thickness … (Mean±SD)”) (grade 3/4 CNV lesions [3]; [4]) of the same molecule?
**A.** 430 ± 45 μm

**Q.** What about the “Average retinal thickness … (Mean±SD)” value (grade 3/4 CNV lesions [3]; [5]) of the same molecule?
**A.** 406 ± 68 μm

**Q.** What about the “Percent change of retinal thickness (Mean±SD)” value (grade 3/4 CNV lesions [3]; Day 14) of the same molecule?
**A.** −26.0 ± 26.3%

**Q.** And the “Average retinal thickness … (Mean±SD)” value (grade 3/4 CNV lesions [3]; Day 28, Example 15 (0.08%) eye drops 4 times/day, p < 0.01 vs baseline)?
**A.** 358 ± 40 μm

**Q.** What about the “Percent change of retinal thickness (Mean±SD)” value (grade 3/4 CNV lesions [3]; Day 28, p < 0.01 vs vehicle) of the same molecule?
**A.** −61.4 ± 16.0 %
